Data set [1] has as its target Cholinesterase (Homo sapiens, UniProt P06276). The experiment in a line: Inhibition of BChE (unknown origin).
The target of data set [2] is T1, Amine oxidase [flavin-containing] B (Homo sapiens, UniProt P27338).
T1 sequence (P27338 whole entry): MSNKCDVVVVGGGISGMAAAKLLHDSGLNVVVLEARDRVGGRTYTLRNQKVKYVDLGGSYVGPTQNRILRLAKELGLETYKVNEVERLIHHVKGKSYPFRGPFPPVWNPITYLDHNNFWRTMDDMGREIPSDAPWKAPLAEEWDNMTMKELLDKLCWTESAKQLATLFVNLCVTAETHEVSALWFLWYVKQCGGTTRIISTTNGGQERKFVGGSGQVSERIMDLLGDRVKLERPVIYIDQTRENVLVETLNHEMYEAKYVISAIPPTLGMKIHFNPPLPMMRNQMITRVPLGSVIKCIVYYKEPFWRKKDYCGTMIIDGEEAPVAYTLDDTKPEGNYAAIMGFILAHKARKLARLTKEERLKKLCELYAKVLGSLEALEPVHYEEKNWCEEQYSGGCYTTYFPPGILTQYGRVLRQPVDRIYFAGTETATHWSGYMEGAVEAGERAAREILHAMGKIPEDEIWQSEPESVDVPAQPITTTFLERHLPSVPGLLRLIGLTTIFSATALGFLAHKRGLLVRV
The following applies: read-out: INH.
Description: Inhibition of MAO-B (unknown origin) at 100 uM relative to control

Data set [3] addresses Prostaglandin G/H synthase 1 (Homo sapiens, UniProt P23219).
In data set [4] the target is Acetylcholinesterase (Electrophorus electricus, UniProt O42275). The experiment in a line: Inhibition of Electric eel AChE using acetylthiocholine iodide as substrate pre-incubated for 10 mins followed by substrate addition and measured after 15 mins by DTNB reagent based Ellman's method.
Sequence of Acetylcholinesterase (Electrophorus electricus, UniProt O42275) (O42275 whole entry): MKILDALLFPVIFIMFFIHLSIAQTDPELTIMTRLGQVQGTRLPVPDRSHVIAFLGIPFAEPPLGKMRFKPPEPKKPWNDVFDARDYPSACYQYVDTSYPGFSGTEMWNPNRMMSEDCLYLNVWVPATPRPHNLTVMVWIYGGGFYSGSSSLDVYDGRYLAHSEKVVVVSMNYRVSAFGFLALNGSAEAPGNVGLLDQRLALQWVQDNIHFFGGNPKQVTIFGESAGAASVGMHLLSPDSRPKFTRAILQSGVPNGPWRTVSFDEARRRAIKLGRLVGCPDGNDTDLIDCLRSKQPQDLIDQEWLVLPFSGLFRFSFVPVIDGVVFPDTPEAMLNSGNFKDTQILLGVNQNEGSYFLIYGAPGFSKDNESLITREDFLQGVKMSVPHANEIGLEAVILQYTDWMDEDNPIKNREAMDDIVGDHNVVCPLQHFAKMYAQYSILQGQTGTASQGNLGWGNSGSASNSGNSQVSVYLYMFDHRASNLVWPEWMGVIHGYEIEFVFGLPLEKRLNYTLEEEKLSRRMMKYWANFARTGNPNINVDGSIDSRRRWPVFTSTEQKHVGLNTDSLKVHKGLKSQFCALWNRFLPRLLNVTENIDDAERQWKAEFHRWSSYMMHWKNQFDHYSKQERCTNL
The target in data set [5] is Cholinesterase (Equus caballus, UniProt P81908). The experiment in a line: Inhibition of equine serum BuChE using butyrylthiocholine iodide as substrate pre-incubated for 10 mins followed by substrate addition and measured after 15 mins by DTNB reagent based Ellman's method.
Sequence of Cholinesterase (Equus caballus, UniProt P81908) (P81908 whole entry): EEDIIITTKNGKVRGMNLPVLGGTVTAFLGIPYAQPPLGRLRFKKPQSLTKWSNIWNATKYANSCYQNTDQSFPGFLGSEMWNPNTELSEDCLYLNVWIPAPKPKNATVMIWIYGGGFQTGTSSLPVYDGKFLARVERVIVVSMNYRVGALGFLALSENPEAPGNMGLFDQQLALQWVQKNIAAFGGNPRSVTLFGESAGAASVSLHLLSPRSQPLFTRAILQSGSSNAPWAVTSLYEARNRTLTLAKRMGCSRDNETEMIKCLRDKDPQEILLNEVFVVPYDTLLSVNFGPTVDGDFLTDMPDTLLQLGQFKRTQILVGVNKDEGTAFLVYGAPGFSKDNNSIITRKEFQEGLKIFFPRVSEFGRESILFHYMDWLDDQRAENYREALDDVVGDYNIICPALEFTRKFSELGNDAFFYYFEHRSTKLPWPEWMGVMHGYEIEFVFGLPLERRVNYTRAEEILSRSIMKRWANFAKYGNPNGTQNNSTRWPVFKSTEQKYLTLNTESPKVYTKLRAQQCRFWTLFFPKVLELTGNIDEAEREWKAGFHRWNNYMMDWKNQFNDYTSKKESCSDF
A further data set has as its target Beta-secretase 1 (Homo sapiens, UniProt P56817). Put plainly: Inhibition of BACE-1 (unknown origin) 667-676- (2, 4-dinitrophenyl) Lys-Arg-Arg amide trifluoroacetate as substrate preincubated for 15 mins followed by substrate addition and measured after 2 hrs by fluorescence spectrometric analysis.
The target in data set [6] is T2, Amine oxidase [flavin-containing] A (Homo sapiens, UniProt P21397).
T2 sequence (P21397 whole entry): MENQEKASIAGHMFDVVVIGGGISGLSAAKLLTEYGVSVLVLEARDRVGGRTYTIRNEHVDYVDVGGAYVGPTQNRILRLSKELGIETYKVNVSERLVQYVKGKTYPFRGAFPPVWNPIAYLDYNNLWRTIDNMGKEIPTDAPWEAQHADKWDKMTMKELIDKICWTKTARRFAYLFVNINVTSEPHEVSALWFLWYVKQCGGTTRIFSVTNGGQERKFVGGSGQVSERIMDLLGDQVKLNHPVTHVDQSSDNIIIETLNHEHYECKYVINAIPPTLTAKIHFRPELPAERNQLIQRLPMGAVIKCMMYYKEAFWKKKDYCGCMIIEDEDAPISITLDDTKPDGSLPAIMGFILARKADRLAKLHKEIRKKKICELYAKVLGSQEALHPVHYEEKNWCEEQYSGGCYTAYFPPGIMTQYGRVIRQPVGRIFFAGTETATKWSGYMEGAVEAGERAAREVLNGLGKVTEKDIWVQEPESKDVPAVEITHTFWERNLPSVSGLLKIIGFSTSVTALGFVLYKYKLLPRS
Put plainly: Inhibition of human MAO-A using tyramine/benzylamine as substrate measured after 30 mins by fluorometric assay.

A further data set is described as follows: in vitro. The following applies: PAMPA, pH 7.4.
Data set [7] has as its target Acetylcholinesterase (Homo sapiens, UniProt P22303). The experiment in a line: Inhibition of AChE (unknown origin) using acetylthiocholine iodide as substrate pre-incubated for 30 mins followed by substrate addition and measured after 30 mins by DTNB reagent based Ellman's method.
The nature of data set [8]: Neurotoxicity against human SH-SY5Y cells assessed as reduction in cell viability upto 50 uM incubated for 24 hrs by MTT assay. The format is toxicity, cell-based.
Data set [9] can be described thus: Lipophilicity, logP of compound. It is filed as physicochemical. The conditions noted are these: octanol/water.
For data set [10], the target named is T1, Amine oxidase [flavin-containing] B. The experiment in a line: Inhibition of human MAO-B using tyramine/benzylamine as substrate measured after 30 mins by fluorometric assay.
The target of data set [11] is T3, Prostaglandin G/H synthase 2 (Homo sapiens, UniProt P35354).
T3 sequence (P35354 whole entry): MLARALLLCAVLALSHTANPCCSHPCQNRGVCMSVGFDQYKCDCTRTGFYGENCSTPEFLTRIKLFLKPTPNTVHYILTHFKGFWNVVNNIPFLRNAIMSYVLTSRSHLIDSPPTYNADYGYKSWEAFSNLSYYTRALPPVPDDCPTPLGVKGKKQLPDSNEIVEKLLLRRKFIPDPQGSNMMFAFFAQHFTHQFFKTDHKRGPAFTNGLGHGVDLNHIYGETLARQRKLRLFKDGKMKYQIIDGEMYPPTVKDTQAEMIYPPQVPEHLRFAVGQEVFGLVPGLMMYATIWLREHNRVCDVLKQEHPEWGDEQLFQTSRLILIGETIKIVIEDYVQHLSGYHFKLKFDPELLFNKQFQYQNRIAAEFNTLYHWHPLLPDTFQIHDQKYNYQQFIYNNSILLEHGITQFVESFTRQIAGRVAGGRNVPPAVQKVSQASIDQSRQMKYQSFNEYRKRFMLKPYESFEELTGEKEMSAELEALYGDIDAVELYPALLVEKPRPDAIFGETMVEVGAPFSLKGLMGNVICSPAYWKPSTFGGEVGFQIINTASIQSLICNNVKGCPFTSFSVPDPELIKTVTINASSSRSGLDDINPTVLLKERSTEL
Description: Inhibition of COX-2 (unknown origin) using arachidonic acid as substrate and in presence of TMPD preincubated for 5 mins followed by substrate addition and measured after 5 mins by UV visible spectrophotometric analysis

Data set [12] concerns the target T4, Polyunsaturated fatty acid 5-lipoxygenase (Homo sapiens, UniProt P09917).
T4 sequence (P09917 whole entry): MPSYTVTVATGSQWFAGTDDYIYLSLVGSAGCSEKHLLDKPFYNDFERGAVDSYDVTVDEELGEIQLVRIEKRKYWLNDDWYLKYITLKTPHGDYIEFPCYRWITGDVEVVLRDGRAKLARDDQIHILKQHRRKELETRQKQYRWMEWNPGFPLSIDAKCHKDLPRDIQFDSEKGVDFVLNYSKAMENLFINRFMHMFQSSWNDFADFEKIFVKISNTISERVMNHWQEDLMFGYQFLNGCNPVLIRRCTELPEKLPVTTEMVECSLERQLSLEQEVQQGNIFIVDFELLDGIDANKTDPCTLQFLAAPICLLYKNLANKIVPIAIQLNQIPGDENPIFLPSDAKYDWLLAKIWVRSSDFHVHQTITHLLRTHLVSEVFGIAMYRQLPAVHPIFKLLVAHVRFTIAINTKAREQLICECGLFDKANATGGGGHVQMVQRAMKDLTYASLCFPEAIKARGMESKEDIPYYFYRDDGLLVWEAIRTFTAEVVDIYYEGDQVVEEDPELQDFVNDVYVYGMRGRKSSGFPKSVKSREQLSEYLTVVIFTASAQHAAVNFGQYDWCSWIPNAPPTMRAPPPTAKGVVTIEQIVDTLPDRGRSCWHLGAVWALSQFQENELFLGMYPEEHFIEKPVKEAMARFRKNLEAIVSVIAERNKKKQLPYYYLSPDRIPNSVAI
Put plainly: Inhibition of 5-LOX (unknown origin) using linoleic acid as substrate incubated for 5 mins followed by substrate addition.

In data set [13] the target is T3, Prostaglandin G/H synthase 2. The experiment in a line: Inhibition of human COX2 by EIA method.
In data set [14] the target is T1, Amine oxidase [flavin-containing] B. Put plainly: Inhibition of MAO-B (unknown origin).

Sequence of Prostaglandin G/H synthase 1 (P23219 whole entry): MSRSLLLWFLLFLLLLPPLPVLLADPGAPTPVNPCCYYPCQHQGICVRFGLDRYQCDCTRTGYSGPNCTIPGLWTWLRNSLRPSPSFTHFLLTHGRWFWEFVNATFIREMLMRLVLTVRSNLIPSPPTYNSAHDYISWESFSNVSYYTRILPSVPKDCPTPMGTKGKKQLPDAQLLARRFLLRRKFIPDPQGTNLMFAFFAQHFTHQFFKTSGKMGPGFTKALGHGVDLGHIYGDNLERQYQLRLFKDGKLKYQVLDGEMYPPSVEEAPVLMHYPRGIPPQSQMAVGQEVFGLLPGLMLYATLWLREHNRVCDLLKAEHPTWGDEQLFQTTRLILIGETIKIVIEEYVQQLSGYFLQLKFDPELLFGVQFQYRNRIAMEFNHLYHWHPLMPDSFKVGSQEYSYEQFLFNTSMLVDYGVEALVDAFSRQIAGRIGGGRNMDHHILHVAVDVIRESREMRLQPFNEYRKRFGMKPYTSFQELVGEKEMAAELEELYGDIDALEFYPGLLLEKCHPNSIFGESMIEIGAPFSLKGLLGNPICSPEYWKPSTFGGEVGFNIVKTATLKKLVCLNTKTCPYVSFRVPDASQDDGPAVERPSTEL
Sequence of Beta-secretase 1 (P56817 whole entry): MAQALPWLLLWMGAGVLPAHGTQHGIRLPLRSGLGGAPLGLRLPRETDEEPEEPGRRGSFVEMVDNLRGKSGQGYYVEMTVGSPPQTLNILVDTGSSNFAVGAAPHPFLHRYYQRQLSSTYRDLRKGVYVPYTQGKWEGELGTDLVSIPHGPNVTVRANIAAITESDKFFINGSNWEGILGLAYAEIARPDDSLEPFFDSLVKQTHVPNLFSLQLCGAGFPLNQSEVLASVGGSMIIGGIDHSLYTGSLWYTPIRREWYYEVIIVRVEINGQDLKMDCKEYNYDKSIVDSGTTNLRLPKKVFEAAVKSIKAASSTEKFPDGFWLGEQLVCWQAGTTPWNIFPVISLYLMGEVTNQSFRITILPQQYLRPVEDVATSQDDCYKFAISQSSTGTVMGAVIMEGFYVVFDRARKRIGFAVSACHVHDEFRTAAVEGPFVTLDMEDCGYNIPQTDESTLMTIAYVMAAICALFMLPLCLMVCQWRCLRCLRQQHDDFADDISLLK
Sequence of Acetylcholinesterase (Homo sapiens, UniProt P22303) (P22303 whole entry): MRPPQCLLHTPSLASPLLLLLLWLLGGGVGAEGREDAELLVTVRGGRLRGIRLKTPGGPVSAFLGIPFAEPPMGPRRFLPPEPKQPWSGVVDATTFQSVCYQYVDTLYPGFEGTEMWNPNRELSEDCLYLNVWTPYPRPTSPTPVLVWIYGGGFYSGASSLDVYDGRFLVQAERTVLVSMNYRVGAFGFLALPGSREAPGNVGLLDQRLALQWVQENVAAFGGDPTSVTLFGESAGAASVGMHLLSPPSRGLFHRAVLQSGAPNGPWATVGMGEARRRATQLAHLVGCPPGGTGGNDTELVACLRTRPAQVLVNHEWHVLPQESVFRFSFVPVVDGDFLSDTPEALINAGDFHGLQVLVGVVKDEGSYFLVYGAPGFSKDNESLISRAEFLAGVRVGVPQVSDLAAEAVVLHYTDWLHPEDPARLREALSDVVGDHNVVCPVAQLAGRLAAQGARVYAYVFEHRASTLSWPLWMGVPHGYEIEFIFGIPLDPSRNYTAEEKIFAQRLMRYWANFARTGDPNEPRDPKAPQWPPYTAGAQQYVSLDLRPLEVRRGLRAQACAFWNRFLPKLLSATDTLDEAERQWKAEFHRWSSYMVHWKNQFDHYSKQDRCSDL
Sequence of Cholinesterase (Homo sapiens, UniProt P06276) (P06276 whole entry): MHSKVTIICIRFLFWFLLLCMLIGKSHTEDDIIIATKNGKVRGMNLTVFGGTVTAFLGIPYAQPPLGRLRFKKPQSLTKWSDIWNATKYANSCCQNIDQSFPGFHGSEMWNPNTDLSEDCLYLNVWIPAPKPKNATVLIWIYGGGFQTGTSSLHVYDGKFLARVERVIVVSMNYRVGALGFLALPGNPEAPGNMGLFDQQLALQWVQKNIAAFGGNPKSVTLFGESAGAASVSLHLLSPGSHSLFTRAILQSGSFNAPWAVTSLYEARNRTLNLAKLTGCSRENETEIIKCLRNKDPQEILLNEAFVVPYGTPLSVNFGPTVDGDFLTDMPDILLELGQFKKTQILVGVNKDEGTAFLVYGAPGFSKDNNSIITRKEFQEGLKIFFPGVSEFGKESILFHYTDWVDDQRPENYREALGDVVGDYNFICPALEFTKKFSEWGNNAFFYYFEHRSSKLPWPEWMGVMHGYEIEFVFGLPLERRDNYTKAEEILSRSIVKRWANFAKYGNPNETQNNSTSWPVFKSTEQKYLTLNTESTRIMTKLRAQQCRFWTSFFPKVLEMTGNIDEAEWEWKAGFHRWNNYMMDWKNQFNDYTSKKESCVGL
Description for in vitro: Permeability of compound in PBS at pH 7.4 incubated for 20 hrs by PAMPA-BBB assay

For `Cc1ccc2sc(NC(=O)CCN3CCCC3)nc2c1`, half-maximal inhibition against Cholinesterase [1] (IC50) was put at 15000 nM. Besides, in [2], the inhibition at 100 µM amounted to 60%.

`O=C(CN1C(=O)S/C(=C\c2ccc(O)cc2)C1=O)Nc1nccs1`: the IC50 turned out to be 51800 nM in data set [3] (read-out: IC50) and 9030 nM on Acetylcholinesterase [4] (read-out: IC50).

Regarding `O=C1S/C(=C\c2ccccc2)C(=O)N1CNc1nc(-c2cc(Cl)cs2)c(Nc2ccccc2)s1`, the IC50 entry in data set [3] is “Not_active”; on Acetylcholinesterase [4], “Not_active”; against Cholinesterase [5], 230 nM; at Beta-secretase 1 (read-out: IC50) it was 490 nM.

Consider `O=C(CN1C(=O)S/C(=C\c2ccc(O)cc2)C1=O)Nc1nc2ccccc2s1`, for which the IC50 is 2760 nM at Acetylcholinesterase [4] (read-out: IC50) and “Not_active” in [6].

For the compound `Cc1nnc2n1-c1ccc(Cl)cc1C(c1ccccc1)=NC2` [ALPRAZOLAM], the Papp at 20 h in the data set “in vitro” came to 5.59 ×10⁻⁶ cm/s.

As for `COc1ccc(C2CC(c3ccc(O)cc3)=NN2c2nc3ccc(C)cc3s2)cc1OC` (stereo not given), on Acetylcholinesterase [7], the IC50 was 8690 nM.

On to `C/C=C1\SC(=O)N(CNc2nc(-c3cc(Cl)cs3)c(Nc3ccc(S(N)(=O)=O)cc3)s2)C1=O`, for which the half-inhibitory concentration (IC50) entry is “Not_active” in data set [3], “Not_active” against Acetylcholinesterase [4], 110 nM on Cholinesterase [5] and 510 nM on Beta-secretase 1 (read-out: IC50). In addition, in data set [8], the Activity result is reported as “Non-toxic”. The logP in data set [9] came to 4.86. Besides, the Papp at 20 h in “in vitro” turned out to be 9.1 ×10⁻⁶ cm/s.

Regarding `O=C1S/C(=C\c2ccccc2)C(=O)N1c1csc(Nc2ccccc2)n1`, the IC50 in data set [3] (read-out: IC50) worked out at 29300 nM; on Acetylcholinesterase [4] (read-out: IC50), 290 nM; on Cholinesterase [5] it was 7180 nM; at Beta-secretase 1 (read-out: IC50), 10200 nM.

For `O=C1S/C(=C\c2c[nH]c3ccccc23)C(=O)N1c1csc(Nc2ccccc2)n1`, the IC50 in data set [3] (read-out: IC50) was 33400 nM; at Acetylcholinesterase [4] (read-out: IC50) it was 690 nM; at Cholinesterase [5], 17400 nM; on Beta-secretase 1 (read-out: IC50) it was 19200 nM.

For `O=C(/C=C/c1ccccc1)Nc1ccc2sc(NCN3C(=O)CSC3=O)nc2c1`, the IC50 on Acetylcholinesterase [4] (read-out: IC50) is 9070 nM; in data set [6] (read-out: IC50), 65400 nM; in data set [10] it was 14700 nM; at Beta-secretase 1 it was “Not_active”; in [11], 107 nM; in [12], 210 nM.

Consider `O=C(CCN1CCCC1)Nc1nc2ccc(Br)cc2s1`, for which it took 12000 nM to reach half-maximal inhibition against Cholinesterase [1] (IC50). Besides, in [2], the inhibition at 100 µM was 66%.

For the compound `O=C1S/C(=C\c2ccc(O)cc2)C(=O)N1CNc1nc2ccccc2s1`, on Acetylcholinesterase [4] (read-out: IC50), the IC50 is 5980 nM.

For `O=C(CN1C(=O)S/C(=C\c2c[nH]c3ccccc23)C1=O)Nc1nccs1`, the values for the IC50 at Acetylcholinesterase [4] (read-out: IC50) and at Beta-secretase 1 (read-out: IC50) were 160 nM and 1180 nM, respectively.

Take `CCn1cc(C(=O)O)c(=O)c2cc(F)c(N3CCNC(C)C3)c(F)c21` (stereo not given) [LOMEFLOXACIN]: the Papp at 20 h in “in vitro” was determined as 1.13 ×10⁻⁶ cm/s.

Regarding `O=C1S/C(=C\c2c[nH]c3ccccc23)C(=O)N1CNc1nc(-c2ccccc2)cs1`, the IC50 on Acetylcholinesterase [4] (read-out: IC50) is 52 nM; at Beta-secretase 1 (read-out: IC50), 760 nM. In addition, the Activity result in [8] is recorded as “Non-toxic”. Besides, the logP in [9] came to 4.65. Moreover, in “in vitro”, the Papp at 20 h is 10.7 ×10⁻⁶ cm/s.

Take `CS(=O)(=O)c1ccc(-n2cc(/C=C3/SC(=O)NC3=O)c(-c3ccccc3)n2)cc1`: in data set [13], the IC50 was determined as 480 nM.

For the compound `O=C1S/C(=C\c2ccc(-c3ccccc3)cc2)C(=O)N1CNc1nc(-c2ccccc2)cs1`, the IC50 at Acetylcholinesterase [4] (read-out: IC50) was 63 nM; against Beta-secretase 1, “Not_active”. Moreover, in data set [8], the Activity entry is listed as “Non-toxic”. The compound also showed a logP in [9] of 6.78. The same compound had a Papp at 20 h in “in vitro” of 14.2 ×10⁻⁶ cm/s.

As to `O=C(CN1C(=O)S/C(=C\c2c[nH]c3ccccc23)C1=O)Nc1nc2ccccc2s1`, the IC50 in data set [3] (read-out: IC50) stood at 42500 nM; at Acetylcholinesterase [4] (read-out: IC50), 450 nM; at Beta-secretase 1 (read-out: IC50), 910 nM.

Turning to `O=C(/C=C/c1ccc(-c2ccccc2)cc1)Nc1nc2ccc(O)cc2s1`, the IC50 against Acetylcholinesterase [7] was found to be 71 nM; in data set [14] it was 37 nM.

(Values after ChEMBL document CHEMBL6103588, “Promising thiazolidinedione-thiazole based multi-target and neuroprotective hybrids for Alzheimer's disease: Design, synthesis, in-vitro, in-vivo and in-silico studies” (Eur J Med Chem, 2025).)
